Assays:
Test in all cases: NCI60 screening
Assay type in all cases: cell-based
BT-549 = settings: Homo sapiens, Breast Cancer panel
From the text: (§1) With these findings, we submitted compound 8t to National Cancer Institute (NCI) to evaluate their antitumor efficacy against 60 human cancer cell lines.

M14 = settings: Homo sapiens, Melanoma panel
From the text: as §1

PC-3 = settings: Homo sapiens, Prostate Cancer panel
From the text: as §1

DU-145 = settings: Homo sapiens, Prostate Cancer panel
From the text: as §1

MOLT-4 = settings: Homo sapiens, Leukemia panel
From the text: as §1

HCC-2998 = settings: Homo sapiens, Colon Cancer panel
From the text: as §1

K-562 = settings: Homo sapiens, K562; Leukemia panel
From the text: as §1

CCRF-CEM = settings: Homo sapiens, Leukemia panel
From the text: as §1

NCI-H23 = settings: Homo sapiens, Non-Small Cell Lung Cancer panel
From the text: as §1

SF-539 = settings: Homo sapiens, CNS Cancer panel
From the text: as §1

OVCAR-5 = settings: Homo sapiens, Ovarian Cancer panel
From the text: as §1

A498 = settings: Homo sapiens, Renal Cancer panel
From the text: as §1

U251 = settings: Homo sapiens, U-251; CNS Cancer panel
From the text: as §1

MDA-MB-231 = settings: Homo sapiens, Breast Cancer panel
From the text: as §1

SNB-75 = settings: Homo sapiens, CNS Cancer panel
From the text: as §1

CAKI-1 = settings: Homo sapiens, Renal Cancer panel
From the text: as §1

MDA-MB-468 = settings: Homo sapiens, Breast Cancer panel
From the text: as §1

RPMI-8226 = settings: Homo sapiens, Leukemia panel
From the text: as §1

NCI-H460 = settings: Homo sapiens, Non-Small Cell Lung Cancer panel
From the text: as §1

OVCAR-3 = settings: Homo sapiens, Ovarian Cancer panel
From the text: as §1

COLO 205 = settings: Homo sapiens, Colon Cancer panel
From the text: as §1

KM12 = settings: Homo sapiens, Colon Cancer panel
From the text: as §1

SF-295 = settings: Homo sapiens, CNS Cancer panel
From the text: as §1

SW-620 = settings: Homo sapiens, Colon Cancer panel
From the text: as §1

HCT-116 = settings: Homo sapiens, Colon Cancer panel
From the text: as §1

EKVX = settings: Homo sapiens, Non-Small Cell Lung Cancer panel
From the text: as §1

HL-60(TB) = settings: Homo sapiens, Leukemia panel
From the text: as §1

NCI-H522 = settings: Homo sapiens, Non-Small Cell Lung Cancer panel
From the text: as §1

SN12C = settings: Homo sapiens, Renal Cancer panel
From the text: as §1

UO-31 = settings: Homo sapiens, Renal Cancer panel
From the text: as §1

T-47D = settings: Homo sapiens, T47D; Breast Cancer panel
From the text: as §1

RXF 393 = settings: Homo sapiens, Renal Cancer panel
From the text: as §1

ACHN = settings: Homo sapiens, Renal Cancer panel
From the text: as §1

UACC-62 = settings: Homo sapiens, Melanoma panel
From the text: as §1

NCI/ADR-RES = settings: Homo sapiens, Ovarian Cancer panel
From the text: as §1

SK-MEL-28 = settings: Homo sapiens, Melanoma panel
From the text: as §1

SNB-19 = settings: Homo sapiens, CNS Cancer panel
From the text: as §1

IGROV1 = settings: Homo sapiens, IGROV-1; Ovarian Cancer panel
From the text: as §1

MALME-3M = settings: Homo sapiens, Melanoma panel
From the text: as §1

OVCAR-4 = settings: Homo sapiens, Ovarian Cancer panel
From the text: as §1

HOP-62 = settings: Homo sapiens, Non-Small Cell Lung Cancer panel
From the text: as §1

SK-MEL-5 = settings: Homo sapiens, Melanoma panel
From the text: as §1

OVCAR-8 = settings: Homo sapiens, Ovarian Cancer panel
From the text: as §1

UACC-257 = settings: Homo sapiens, Melanoma panel
From the text: as §1

LOX IMVI = settings: Homo sapiens, Melanoma panel
From the text: as §1

786-0 = settings: Homo sapiens, Renal Cancer panel
From the text: as §1

HT29 = settings: Homo sapiens, HT-29; Colon Cancer panel
From the text: as §1

MDA-MB-435 = settings: Homo sapiens, Melanoma panel
From the text: as §1

SF-268 = settings: Homo sapiens, CNS Cancer panel
From the text: as §1

NCI-H226 = settings: Homo sapiens, Non-Small Cell Lung Cancer panel
From the text: as §1

NCI-H322M = settings: Homo sapiens, Non-Small Cell Lung Cancer panel
From the text: as §1

MCF7 = settings: Homo sapiens, Breast Cancer panel
From the text: as §1

SR = settings: Homo sapiens, Leukemia panel
From the text: as §1

HS 578T = settings: Homo sapiens, Breast Cancer panel
From the text: as §1

HCT-15 = settings: Homo sapiens, Colon Cancer panel
From the text: as §1

TK-10 = settings: Homo sapiens, Renal Cancer panel
From the text: as §1

`O=C(Nc1ccc(N2CCNCC2)cc1)c1n[nH]cc1Nc1ncnc2sc3c(c12)CCC3` [Compound 8t] showed a GI50 (BT-549) of 1020 nM, a GI50 (M14) of 120 nM and a GI50 (PC-3) of 180 nM. It also gave a GI50 (DU-145) of 300 nM, a GI50 (MOLT-4) of 80 nM and a GI50 (HCC-2998) of 1200 nM. The GI50 (K-562) was 120 nM, the GI50 (CCRF-CEM) was 220 nM and the GI50 (NCI-H23) was 260 nM. It also gave a GI50 (SF-539) of 390 nM, a GI50 (OVCAR-5) of 270 nM and a GI50 (A498) of 140 nM. The GI50 (U251) was 110 nM, the GI50 (MDA-MB-231) was 1930 nM and the GI50 (SNB-75) was 50 nM. For the same compound, the GI50 (CAKI-1) was 80 nM, the GI50 (MDA-MB-468) was 420 nM and the GI50 (RPMI-8226) was 890 nM. For the same compound, the GI50 (NCI-H460) was 60 nM, the GI50 (OVCAR-3) was 230 nM and the GI50 (COLO 205) was 120 nM. For the same compound, the GI50 (KM12) was 170 nM, the GI50 (SF-295) was 270 nM and the GI50 (SW-620) was 120 nM. The GI50 (HCT-116) was 110 nM, the GI50 (EKVX) was 60 nM and the GI50 (HL-60(TB)) was 1150 nM. It also gave a GI50 (NCI-H522) of 210 nM, a GI50 (SN12C) of 450 nM and a GI50 (UO-31) of 400 nM. For the same compound, the GI50 (T-47D) was 590 nM, the GI50 (RXF 393) was 390 nM and the GI50 (ACHN) was 160 nM. The GI50 (UACC-62) was 1090 nM, the GI50 (NCI/ADR-RES) was 1480 nM and the GI50 (SK-MEL-28) was 1130 nM. The GI50 (SNB-19) was 240 nM, the GI50 (IGROV1) was 120 nM and the GI50 (MALME-3M) was 240 nM. For the same compound, the GI50 (OVCAR-4) was 220 nM, the GI50 (HOP-62) was 370 nM and the GI50 (SK-MEL-5) was 250 nM. The GI50 (OVCAR-8) was 360 nM, the GI50 (UACC-257) was 480 nM and the GI50 (LOX IMVI) was 200 nM. It also gave a GI50 (786-0) of 360 nM, a GI50 (HT29) of 260 nM and a GI50 (MDA-MB-435) of 110 nM. The GI50 (SF-268) was 720 nM, the GI50 (NCI-H226) was 320 nM and the GI50 (NCI-H322M) was 140 nM. The GI50 (MCF7) was 160 nM, the GI50 (SR) was 60 nM and the GI50 (HS 578T) was 100 nM. For the same compound, the GI50 (HCT-15) was 220 nM and the GI50 (TK-10) was 470 nM.
